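In this assay, cells in 96-well plates receive the compound at five concentrations for 48 hours. Endpoints are linearly interpolated between the surrounding concentrations. Abbreviation: GI50, concentration required for 50% inhibition of growth.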 Activity calls are given as the source filed them. Cut-off read from the data, not from the text of the source: active = GI50 up to about 1.1 µM and inactive = higher.
Tests used:
Experiment in all cases: growth of human tumour cells (NCI), 48 h
MOLT-4 = test system: MOLT-4
OVCAR-8 = test system: OVCAR-8
M14 = test system: M14
UACC-62 = test system: UACC-62
HCT-15 = test system: HCT-15
LOX IMVI = test system: LOX IMVI
UO-31 = test system: UO-31
SK-MEL-28 = test system: SK-MEL-28
MDA-MB-435 = test system: MDA-MB-435
SN12C = test system: SN12C
DU-145 = test system: DU-145
Hs-578T = test system: Hs-578T
SF-268 = test system: SF-268
SF-539 = test system: SF-539
NCI-H226 = test system: NCI-H226
ACHN = test system: ACHN
SNB-75 = test system: SNB-75
NCI-H522 = test system: NCI-H522
PC-3 = test system: PC-3
DMS-114 = test system: DMS-114

SMILES	GI50 (MOLT-4)	GI50 (OVCAR-8)	GI50 (M14)	GI50 (UACC-62)	GI50 (HCT-15)	GI50 (LOX IMVI)	GI50 (UO-31)	GI50 (SK-MEL-28)	GI50 (MDA-MB-435)	GI50 (SN12C)	GI50 (DU-145)	GI50 (Hs-578T)	GI50 (SF-268)	GI50 (SF-539)	GI50 (NCI-H226)	GI50 (ACHN)	GI50 (SNB-75)	GI50 (NCI-H522)	GI50 (PC-3)	GI50 (DMS-114)
CCC(/C=C/C1OC(=O)C=CC1C)=C\C(C)C/C=C/C(C)=C/C(C)C(=O)C(C)C(O)C(C)C/C(C)=C/C(=O)O (configuration not stated)	1.06 µM (active)	3.14 µM (inactive)	5.27e-06 µM (active)	1.56 µM (inactive)	1.28 µM	< 1e-06 µM (active)	2.35 µM (inactive)	2.65 µM (inactive)	2.33e-06 µM (active)	2.72 µM (inactive)	0.000264 µM (active)	1.44e-05 µM (active)	4.07e-06 µM (active)	1.04 µM (active)	1.67 µM (inactive)	7.4e-06 µM (active)	1.91 µM (inactive)	0.955 µM (active)	1.27e-05 µM (active)	0.847 µM (active)
COc1ccc2c(=O)c(-c3cc(OC)c(OC)cc3OC)coc2c1	2 µM (inactive)	9.73 µM (inactive)	4.49 µM (inactive)	1.97 µM (inactive)	1.24 µM	5.51 µM (inactive)	34 µM (inactive)	3.65 µM (inactive)		13.3 µM (inactive)	2.86 µM (inactive)	1.98 µM (inactive)	4.73 µM (inactive)	3.3 µM (inactive)	> 43.2 µM (inactive)	> 82.8 µM (inactive)	2.26 µM (inactive)	1.28 µM (inactive)	4.16 µM (inactive)	3.02 µM (inactive)
Cc1nc(Nc2ccc(Cl)c(Cl)c2)sc1C(/C=C/c1ccc2c(c1)OCO2)=N/Nc1ccc([N+](=O)[O-])cc1[N+](=O)[O-]	> 56.2 µM (inactive)	> 100 µM (inactive)	61.7 µM (inactive)	> 61.9 µM (inactive)	> 97.1 µM	67 µM (inactive)	78.2 µM (inactive)	> 100 µM (inactive)	> 100 µM (inactive)	> 100 µM (inactive)	> 100 µM (inactive)	> 74.5 µM (inactive)	> 100 µM (inactive)	43.8 µM (inactive)	> 59 µM (inactive)	> 92 µM (inactive)	13.2 µM (inactive)	61 µM (inactive)	> 100 µM (inactive)	51.8 µM (inactive)
O=C1/C(=C/c2ccccc2)CN(C(=O)Oc2ccc([N+](=O)[O-])cc2)C/C1=C\c1ccccc1	0.649 µM (active)	1.12 µM (active)	0.908 µM (active)	2.41 µM (inactive)	2.08 µM	0.676 µM (active)	9.77 µM (inactive)	3.48 µM (inactive)		2.79 µM (inactive)			5.09 µM (inactive)	9.42 µM (inactive)	> 10 µM (inactive)	6.65 µM (inactive)	4.4 µM (inactive)	3.18 µM (inactive)		2.11 µM (inactive)
O=c1[nH]c2cc([N+](=O)[O-])ccc2nc1/C(=N/Nc1ccccc1)C(O)c1ccccc1Cl (configuration not stated)	> 100 µM (inactive)	> 100 µM (inactive)	47.3 µM (inactive)	11.2 µM (inactive)	7.8 µM	> 100 µM (inactive)	21.1 µM (inactive)	> 100 µM (inactive)		> 100 µM (inactive)			> 100 µM (inactive)	44.9 µM (inactive)	80.2 µM (inactive)	17.5 µM (inactive)	28.2 µM (inactive)	4.68 µM (inactive)		6.75 µM (inactive)
O=[N+]([O-])c1ccc(-c2ccc(/C=N/n3c(S)nnc3-c3ccc(Cl)cc3)o2)cc1	15 µM (inactive)	> 50 µM (inactive)	16.1 µM (inactive)	27.4 µM (inactive)	22.6 µM	47.5 µM (inactive)	> 24.2 µM (inactive)	16.6 µM (inactive)		> 49.2 µM (inactive)			24.7 µM (inactive)	> 40.2 µM (inactive)	> 38.6 µM (inactive)	26 µM (inactive)	33.3 µM (inactive)	28.6 µM (inactive)		95.3 µM (inactive)
COc1ccc2c(c1)c1ccc3c(c1n2C)C(=O)C=CC3=O	0.834 µM (active)	11.4 µM (inactive)	10.4 µM (inactive)	12.8 µM (inactive)	4.72 µM	8.83 µM (inactive)	11.4 µM (inactive)	9.55 µM (inactive)	7.96 µM (inactive)	8.38 µM (inactive)	9.77 µM (inactive)	8.09 µM (inactive)	15 µM (inactive)	13 µM (inactive)	14.3 µM (inactive)	6.24 µM (inactive)	31.7 µM (inactive)	3.15 µM (inactive)	12.8 µM (inactive)	20.7 µM (inactive)

— ChEMBL document CHEMBL1201862, “PubChem BioAssay data set” (2004)
